# Where “and” joins values, the source holds several entries; their conditions need not be identical. Identical values can stand only once.
# What was measured:
# ADA = assay: Quantitative RT-PCR, unsorted mononuclear cells, ADA; format: cell-based, human
# Protocol: (§1) To evaluate the effect of MGBG on gene expression, blood samples were obtained from patients (N=18, 10 HIV-infected and 8 Healthy Controls). Mononuclear cells were isolated via Percoll gradient centrifugation. The cells were split into two tubes, one treated with 10 μM of MGBG and the other non-treated. The cells were then cultured overnight in RPMI media plus 10% fetal bovine serum at 37 C under non-adherent conditions, collected, lysed using Trizol solution, and total RNA prepared according to manufacturer's instructions (Invitrogen, Carlsbad, Calif.).
# (§2) Approximately 200 ng of total RNA prepared from each sample was converted to cDNA using the First Strand cDNA Synthesis Kit for RT-PCR [AMV] kit (Roche Applied Diagnostics, Indianapolis, Ind.) according to manufacturer's instructions. Around 5 ng of cDNA sample was then used for PCR performed on a LightCycler (Roche Applied Diagnostics, Indianapolis, Ind.) using the LightCycler FastStart DNA Master SYBR Green I kit. PCR conditions are as follows: 1 cycle of denaturation at 95° C. for 10 minutes, followed by 45 cycles of 95° C. for 10 seconds, 68° C. for 10 seconds, and 72° C. for 16 seconds.
# (§3) The sequences of gene-specific primers evaluated are listed below. All samples were also amplified with the human β-actin LightCycler-Primer set (Roche Diagnostics).
# OPN RNA = assay: OPN production inhibition assay in un-stimulated PBMC cultures, OPN RNA; format: cell-based; conditions: 10 μM, harvested 1, 3 and 6 days
# Protocol: 10 μM of each drug was added to un-stimulated PBMC cultures at time=0 and cells were harvested 1,3, and 6 days later for quantitative OPN RNA and protein production analysis.
# SGNE3 = assay: Quantitative RT-PCR, unsorted mononuclear cells, SGNE3; format: cell-based, human
# Protocol: as §1, §2, §3
# NBS1 = assay: Quantitative RT-PCR, unsorted mononuclear cells, NBS1; format: cell-based, human
# Protocol: as §1, §2, §3
# SPP1 = assay: Quantitative RT-PCR, unsorted mononuclear cells, SPP1; format: cell-based, human
# Protocol: as §1, §2, §3
# HeLa cell = assay: Migration assay, HeLa cell invasion into a Matrigel matrix; format: cell-based; conditions: 10 μM MGBG
# Protocol: Additionally, cells being targeted by MGBG were investigated. […] To elucidate the effects of MGBG and OPN on cell motility, migration assays were conducted. MGBG at 10 μM inhibited macrophage Osteopontin production from >200 ng/mL to nondetectable levels while simultaneously inhibiting HeLa cell invasion into a Matrigel matrix.
# FCGR1a = assay: Quantitative RT-PCR, unsorted mononuclear cells, FCGR1A; format: cell-based, human
# Protocol: as §1, §2, §3
# SGNE1 = assay: Microarray analysis of mononuclear cells, SGNE1; format: cell-based, human; conditions: for SGNE1 signal +, Average: 10 μM MGBG
# Protocol: Blood samples were obtained from HIV infected patients (N=9) with positive viral load and reduced CD4 counts, and non-HIV infected, healthy controls (N=6). Blood was collected into heparin anticoagulant tubes and mononuclear cells were isolated by Percoll gradient centrifugation. The cells from each sample were split into 2: one-half receives MGBG at concentration of 10 μM and the other half received no treatment. All samples were then cultured overnight in RPMI media with 10% fetal bovine serum at 37° C. under non-adherent conditions. The next day cells were collected by centrifugation, washed one time with PBS, and lysed by resuspension in TRIZOL, and total RNA was prepared according to manufacturer's instructions (Invitrogen, Carlsbad, Calif.). […] The RNA was then amplified for microarray analysis using a 2 cycle amplification protocol according to the manufacturer's instructions (Affymetrix, Santa Clara, Calif.). The amplified RNAs were then hybridized to Human Genome U133 plus 2.0 microarrays (Affymetrix) and expression data was obtained using an Affymetrix scanner and GCOS protocols. Microarray data was analyzed with GeneSpring Microarray Suite. Results were normalized using a set of 100 probe sets determined by the manufacturer to have relatively invariant expression across most cell types.
# [1] = 10 μM MGBG overnight, untreated vs treated, negative = fold reduction, individual samples
# [2] = 10 μM MGBG, all unsorted samples
# [3] = 10 μM MGBG overnight, individual samples
structure (smiles),measurement,setting,value
"CC(/C=N/NC(=N)N)=N\NC(=N)N [MGBG, 1,1′ [methylethanediylidene]dinitrilodiguanidine]",Fold change ADA by QRT-PCR,ADA; [1],16.80 fold and 4.69 fold and 18.77 fold and 2.33 fold and 13.00 fold and 3.34 fold and 5.90 fold and 10.06 fold and 7.52 fold and 4.23 fold and 7.21 fold and 1.38 fold and −0.73 fold and 6.68 fold and 3.01 fold and 3.76 fold and 1.16 fold and 7.16 fold
same,"Fold change ADA, AVERAGE",ADA; [2],6.5 fold
same,"Fold change ADA, MAX",ADA; [2],18.8 fold
same,"Fold change ADA, MIN",ADA; [2],−0.7 fold
same,ADA % >2 fold Changed,"ADA; share of samples, 10 μM MGBG",83%
same,ADA regulation by MGBG,ADA; upregulated in all but one sample,strongly induced
same,OPN RNA expression,OPN RNA,inhibited in a time dependant manner
same,Fold change SGNE3 by QRT-PCR,SGNE3; [1],1.58 fold and −3.25 fold and −1.30 fold and −2.39 fold and −2.43 fold and −1.48 fold and 1.61 fold and −3.61 fold and −1.66 fold and −1.13 fold and 1.79 fold and −7.11 fold and −2.50 fold and −4.41 fold
same,"Fold change SGNE3, AVERAGE",SGNE3; [2],−1.9 fold
same,"Fold change SGNE3, MAX",SGNE3; [2],1.8 fold
same,"Fold change SGNE3, MIN",SGNE3; [2],−7.1 fold
same,SGNE3 regulation by MGBG,SGNE3; level of inhibition in most samples is low,mostly down-regulated
same,SGNE3 % >2 fold Changed,"SGNE3; share of samples, 10 μM MGBG",50%
same,Fold change NBS1 by QRT-PCR,NBS1; [3],1.68 fold and 1.25 fold and 1.35 fold and −1.56 fold and 2.07 fold and 3.51 fold (2×) and −1.09 fold and 1.04 fold and 4.08 fold and 2.31 fold and 1.14 fold and 1.27 fold and −4.35 fold and −8.51 fold and −2.51 fold and −1.89 fold and 3.63 fold
same,NBS1 AVERAGE,"NBS1; 10 μM MGBG, all samples",1.65 fold
same,NBS1 MAX,"NBS1; 10 μM MGBG, all samples",4.08 fold
same,NBS1 MIN,"NBS1; 10 μM MGBG, all samples",−8.51 fold
same,Fold change SPP1 by QRT-PCR,SPP1; [1],−20.11 fold and −83.87 fold and −6.59 fold and −1.30 fold and −8.82 fold and −95.67 fold and −7.89 fold and −1.95 fold and −46.21 fold and −5.90 fold and −2.11 fold and −6.15 fold and −1.28 fold and −467.88 fold and −18.90 fold (2×) and −300.25 fold and −2.14 fold
same,"Fold change SPP1, AVERAGE",SPP1; [2],−60.9 fold
same,"Fold change SPP1, MAX",SPP1; [2],−1.3 fold
same,"Fold change SPP1, MIN",SPP1; [2],−467.9 fold
same,SPP1 fold changes between the untreated and the treated,SPP1; certain unsorted samples,up to 300 fold
same,SPP1 % >2 fold Changed,"SPP1; share of samples, 10 μM MGBG",83%
same,HeLa cell invasion into a Matrigel matrix,HeLa cell,inhibiting
same,Fold change FCGR1A by QRT-PCR,FCGR1a; [3],−1.61 fold and −1.84 fold and −1.01 fold and −1.72 fold and −3.73 fold and 1.72 fold and 5.94 fold and 2.39 fold and −1.97 fold and 19.03 fold and 1.16 fold and −0.41 fold and −0.43 fold and −10.78 fold and −17.15 fold and −2.22 fold and −3.86 fold and 1.05 fold
same,FCGR1A AVERAGE,"FCGR1a; 10 μM MGBG, all samples",2.25 fold
same,FCGR1A MAX,"FCGR1a; 10 μM MGBG, all samples",19.03 fold
same,FCGR1A MIN,"FCGR1a; 10 μM MGBG, all samples",−17.15 fold
same,"SGNE1 signal +, Average",SGNE1; average of HIV samples,23
same,"SGNE1 signal +, Average","SGNE1; average of control samples (C6-, M6-177)",13
same,"SGNE1 fold change, ON/MGBG ratio (down-regulation)","SGNE1; 10 μM, individual donor samples",3.3 fold and 7.4 fold and 1.9 fold and 14.4 fold and 53.3 fold and 4.7 fold and 9.3 fold and 58.8 fold and 2.4 fold and 3.0 fold and 45.5 fold and 159.8 fold and 10.1 fold and 63 fold and 0.8 fold
same,samples with 2 fold or greater reductions in SGNE1 signal,SGNE1; of the 15 samples evaluated,13
same,SGNE1 signal +,"SGNE1; presence of 10 μM MGBG overnight, individual donor samples",17 and 7 and 10 and 13 (3×) and 12 and 2 (2×) and 3 and 45 and 14 and 8 and 79 and 44

# — patent publication US9867794B2, “Regulation of osteopontin” (Pathologica LLC, priority 2007, dated 2018)
